Tested on: Plasmodium berghei
Assay: Luciferase/luciferin-expressing antifolate-resistant parasites were used to infect a culture of HepG2 cells that were pre-incubated with compounds. Infected hepatocytes emit light due to the luciferase reaction. Assay results are presented as the percent inhibition of light emission compared to control. […]
Assay type: functional
Settings: sporozoite; for IC90: read-out: LUCIFERASE INFECTION ASSAY - IC90

Row | SMILES | IC90 [nM] | other results
1 | Cc1n(-c2ccccc2)c2c([n+]1C)C(=O)c1ccccc1C2=O | 202 | IC50 (HEPG2TOX_HILL_SLOPE 0.753, HEPG2TOX_R_SQUARED 0.901, PBLUC_HILL_SLOPE 2.16, PBLUC_R_SQUARED 0.72, read-out: LUCIFERASE INFECTION ASSAY - IC50): 73.1 nM
2 | O=C(COc1ccc(Oc2ccccc2)cc1)NCc1cn2ccccc2n1 | 1770 | IC50 (HEPG2TOX_HILL_SLOPE 0.752, HEPG2TOX_R_SQUARED 0.901, PBLUC_HILL_SLOPE 2.64, PBLUC_R_SQUARED 0.419, read-out: LUCIFERASE INFECTION ASSAY - IC50): 772 nM
3 | Cc1onc(-c2c(Cl)cccc2Cl)c1C(=O)N1CCCc2ccccc21 | > 8520 | IC50 (HEPG2TOX_HILL_SLOPE 0.734, HEPG2TOX_R_SQUARED 0.611, PBLUC_HILL_SLOPE 1.71, PBLUC_R_SQUARED 0.613, read-out: LUCIFERASE INFECTION ASSAY - IC50): 3640 nM
4 | CCCN1C(=O)/C(=N\OCC(=O)c2cc(C)n(Cc3cccs3)c2C)c2ccccc21 | > 10000 | IC50 (HEPG2TOX_HILL_SLOPE 0.794, HEPG2TOX_R_SQUARED 0.3, read-out: LUCIFERASE INFECTION ASSAY - IC50): > 10000 nM
5 | Cc1nn(C)c(C)c1CC(=O)Nc1ccc(-n2cnc3ccccc32)cc1 | > 10000 | IC50 (HEPG2TOX_HILL_SLOPE 0.764, HEPG2TOX_R_SQUARED 0.908, PBLUC_HILL_SLOPE 0.735, PBLUC_R_SQUARED 0.618, read-out: LUCIFERASE INFECTION ASSAY - IC50): 1310 nM
6 | Cc1cccc(C)c1OC(=O)c1cn(Cc2ccccc2)nc1-c1cccnc1 | > 10000 | IC50 (HEPG2TOX_HILL_SLOPE 0.808, HEPG2TOX_R_SQUARED 0.825, read-out: LUCIFERASE INFECTION ASSAY - IC50): > 10000 nM
7 | O=C(C(Sc1nc2cc(S(=O)(=O)N3CCCCC3)ccc2o1)c1ccccc1)N1CCCCC1 (configuration not stated) | > 10000 | IC50 (HEPG2TOX_HILL_SLOPE 0.777, HEPG2TOX_R_SQUARED 0.137, read-out: LUCIFERASE INFECTION ASSAY - IC50): > 10000 nM
8 | O=C(Nc1ccccc1Oc1ccccc1Cl)c1cc2ccccc2c(=O)[nH]1 | 1250 | IC50 (HEPG2TOX_HILL_SLOPE 0.764, HEPG2TOX_R_SQUARED 0.704, PBLUC_HILL_SLOPE 15.6, PBLUC_R_SQUARED 0.531, read-out: LUCIFERASE INFECTION ASSAY - IC50): 1090 nM
9 | CC(=O)c1cccc(-c2cnc3ccc(Cc4ccc(F)cc4)nn23)c1 | 5550 | IC50 (HEPG2TOX_HILL_SLOPE 0.753, HEPG2TOX_R_SQUARED 0.0911, PBLUC_HILL_SLOPE 6.85, PBLUC_R_SQUARED 0.304, read-out: LUCIFERASE INFECTION ASSAY - IC50): 4020 nM
10 | CC(Nc1ncnc2sccc12)c1ccc(F)cc1 (configuration not stated) | 8600 | IC50 (HEPG2TOX_HILL_SLOPE 0.743, HEPG2TOX_R_SQUARED 0.939, PBLUC_HILL_SLOPE 0.968, PBLUC_R_SQUARED 0.762, read-out: LUCIFERASE INFECTION ASSAY - IC50): 889 nM
11 | COc1cncc(-c2cc3c(cn2)nc(NCCc2cc(OC)ccc2OC)n3C)c1 | 8420 | IC50 (HEPG2TOX_HILL_SLOPE 0.77, HEPG2TOX_R_SQUARED 0.89, PBLUC_HILL_SLOPE 0.989, PBLUC_R_SQUARED 0.368, read-out: LUCIFERASE INFECTION ASSAY - IC50): 913 nM
12 | Cc1nc2ccccc2nc1SC(C)C(=O)c1c[nH]c2ccccc12 (configuration not stated) | 1980 | IC50 (HEPG2TOX_HILL_SLOPE 0.739, HEPG2TOX_R_SQUARED 0.941, PBLUC_HILL_SLOPE 2.85, PBLUC_R_SQUARED 0.882, read-out: LUCIFERASE INFECTION ASSAY - IC50): 916 nM
13 | CCN(CC)S(=O)(=O)c1ccc2c(c1)CCN2Cc1nc2ccccc2c(=O)n1C | > 10000 | IC50 (HEPG2TOX_HILL_SLOPE 0.751, HEPG2TOX_R_SQUARED 0.213, PBLUC_HILL_SLOPE 2.58, PBLUC_R_SQUARED 0.526, read-out: LUCIFERASE INFECTION ASSAY - IC50): 6020 nM
14 | O=C(Nc1nc2ccccn2c1C(=O)NC1CCCC1)c1cccc(Cl)c1F | 1240 | IC50 (HEPG2TOX_HILL_SLOPE 0.754, HEPG2TOX_R_SQUARED 0.896, PBLUC_HILL_SLOPE 3.54, PBLUC_R_SQUARED 0.569, read-out: LUCIFERASE INFECTION ASSAY - IC50): 669 nM
15 | COc1cc(-c2ccc3ncc(-c4cccc(NC(C)=O)c4)n3n2)cc(OC)c1OC | 4340 | IC50 (HEPG2TOX_HILL_SLOPE 0.736, HEPG2TOX_R_SQUARED 0.983, PBLUC_HILL_SLOPE 1.49, PBLUC_R_SQUARED 0.582, read-out: LUCIFERASE INFECTION ASSAY - IC50): 995 nM
16 | Cc1nn(Cc2ccccc2)c2sc(C(=O)Nc3nc4ccccc4[nH]3)cc12 | 562 | IC50 (HEPG2TOX_HILL_SLOPE 0.737, HEPG2TOX_R_SQUARED 0.843, PBLUC_HILL_SLOPE 3.70, 1.65, PBLUC_R_SQUARED 0.424, 0.851, read-out: LUCIFERASE INFECTION ASSAY - IC50): 229 nM

Row | SMILES | IC90 [nM] | other results
17 | COc1cc2c(cc1OC)CN(C(=O)c1ccc(OCC(F)(F)F)nc1)CC2 | 7210 | IC50 (HEPG2TOX_HILL_SLOPE 0.758, HEPG2TOX_R_SQUARED 0.894, PBLUC_HILL_SLOPE 2.65, PBLUC_R_SQUARED 0.321, read-out: LUCIFERASE INFECTION ASSAY - IC50): 3140 nM
18 | CC(=O)c1cccc(-c2cnc3ccc(-c4cccc(Cl)c4)nn23)c1 | 8630 | IC50 (HEPG2TOX_HILL_SLOPE 0.743, HEPG2TOX_R_SQUARED 0.718, PBLUC_HILL_SLOPE 1.63, PBLUC_R_SQUARED 0.591, read-out: LUCIFERASE INFECTION ASSAY - IC50): 2240 nM
19 | COc1ccc(C(=O)NNC(=O)c2nn(-c3ccccc3)cc2O)c(OC)c1OC | 2770 | IC50 (HEPG2TOX_HILL_SLOPE 0.737, HEPG2TOX_R_SQUARED 0.981, PBLUC_HILL_SLOPE 4.06, PBLUC_R_SQUARED 0.568, read-out: LUCIFERASE INFECTION ASSAY - IC50): 1610 nM
20 | COc1cccc(C(O)c2nc(C(=O)Nc3ccc(OCc4ccccc4)cc3)cs2)c1 (configuration not stated) | 4390 | IC50 (HEPG2TOX_HILL_SLOPE 0.759, HEPG2TOX_R_SQUARED 0.957, PBLUC_HILL_SLOPE 2.06, PBLUC_R_SQUARED 0.859, read-out: LUCIFERASE INFECTION ASSAY - IC50): 1510 nM
21 | CCOc1cccc(-c2cn3c(-c4ccc(OC)cc4)cnc3cn2)c1 | 375 | IC50 (HEPG2TOX_HILL_SLOPE 0.801, HEPG2TOX_R_SQUARED 0.8, PBLUC_HILL_SLOPE 14.9, PBLUC_R_SQUARED 0.835, read-out: LUCIFERASE INFECTION ASSAY - IC50): 324 nM
22 | Cc1ccc2ncnc(NCCc3ccccc3)c2c1 | 2820 | IC50 (HEPG2TOX_HILL_SLOPE 0.814, HEPG2TOX_R_SQUARED 0.649, PBLUC_HILL_SLOPE 2.08, PBLUC_R_SQUARED 0.658, read-out: LUCIFERASE INFECTION ASSAY - IC50): 984 nM
23 | CN(c1ccccc1)c1nccc2nc(-c3ccncc3)[nH]c12 | > 10000 | IC50 (HEPG2TOX_HILL_SLOPE 0.766, HEPG2TOX_R_SQUARED 0.225, read-out: LUCIFERASE INFECTION ASSAY - IC50): > 10000 nM
24 | CCOC(=O)C1=C(C)NC(C)=C(C(=O)OCC)C1C(=O)OCC(=O)Nc1c(Br)cc(C)cc1Br | > 10000 | IC50 (HEPG2TOX_HILL_SLOPE 0.766, HEPG2TOX_R_SQUARED 0.947, PBLUC_HILL_SLOPE 2.01, PBLUC_R_SQUARED 0.575, read-out: LUCIFERASE INFECTION ASSAY - IC50): 4480 nM
25 | CN(c1ccccc1)S(=O)(=O)c1ccc(C(=O)Nc2nn3cc(-c4ccccc4)nc3s2)cc1 | > 10000 | IC50 (HEPG2TOX_HILL_SLOPE 0.762, HEPG2TOX_R_SQUARED 0.67, PBLUC_HILL_SLOPE 10.6, PBLUC_R_SQUARED 0.0386, read-out: LUCIFERASE INFECTION ASSAY - IC50): > 10000 nM
26 | c1ccc2cc(OCCNc3ncnc4sccc34)ccc2c1 | 3890 | IC50 (HEPG2TOX_HILL_SLOPE 0.735, HEPG2TOX_R_SQUARED 0.741, PBLUC_HILL_SLOPE 1.1, PBLUC_R_SQUARED 0.73, read-out: LUCIFERASE INFECTION ASSAY - IC50): 524 nM
27 | Cn1nc(C(C)(C)C)cc1NC(=O)Cc1ccc(-c2ccccc2)cc1 | > 10000 | IC50 (HEPG2TOX_HILL_SLOPE 0.763, HEPG2TOX_R_SQUARED 0.965, PBLUC_HILL_SLOPE 1.31, PBLUC_R_SQUARED 0.513, read-out: LUCIFERASE INFECTION ASSAY - IC50): 2950 nM
28 | COc1cccc(CN2CCN3C(C(=O)Nc4cccc(OC(F)(F)F)c4)=COC3=NC2=O)c1 | > 10000 | IC50 (HEPG2TOX_HILL_SLOPE 0.751, HEPG2TOX_R_SQUARED 0.867, PBLUC_HILL_SLOPE 2.96, PBLUC_R_SQUARED 0.388, read-out: LUCIFERASE INFECTION ASSAY - IC50): 6840 nM
29 | O=C(COc1ccccc1C(=O)N/N=C/c1ccccc1O)Nc1ccc(SC(F)F)cc1 | 1530 | IC50 (HEPG2TOX_HILL_SLOPE 0.754, HEPG2TOX_R_SQUARED 0.891, PBLUC_HILL_SLOPE 11.1, PBLUC_R_SQUARED 0.496, read-out: LUCIFERASE INFECTION ASSAY - IC50): 1260 nM
30 | CC(=O)c1cccc(-c2cnc3ccc(-c4cccc(N)c4)nn23)c1 | 3850 | IC50 (HEPG2TOX_HILL_SLOPE 0.765, HEPG2TOX_R_SQUARED 0.894, PBLUC_HILL_SLOPE 1.06, PBLUC_R_SQUARED 0.553, read-out: LUCIFERASE INFECTION ASSAY - IC50): 481 nM
31 | N#CC(C#N)=Cc1c(-c2ccc(Cl)cc2)[nH]c2ccccc12 | 1390 | IC50 (HEPG2TOX_HILL_SLOPE 0.752, HEPG2TOX_R_SQUARED 0.846, PBLUC_HILL_SLOPE 1.54, PBLUC_R_SQUARED 0.775, read-out: LUCIFERASE INFECTION ASSAY - IC50): 332 nM

Source: ChEMBL document CHEMBL4483862, “Open-source discovery of chemical leads for next-generation chemoprotective antimalarials” (2018)
